Assay results published in patent US11266145B2, “Compositions comprising protocatechuic acid and methods of use” (priority 2020, dated 2022).
“And” between values parts separate entries of the source, which are not always exact repeats. Equal entries are not always repeated.

Legend:
[1] = tested on: 2019 Novel Coronavirus, Isolate USA-WA1/2020 (SARS-CoV-2); experiment: TCID50 test of SARS-CoV-2 recovered from PCA-coated test substrates (plastic, cloth, mesh), titrated on Vero E6 cells; assay type: cell-based; settings: for log difference: versus virus control on substrate; for TCID50 Log10/mL: single replicates
Description: The Test Article (TA) used for this study was Protocatechuic Acid (PCA). The TA was received as an off-white powder. The PCA solution was prepared to be 30% PCA w/v in Ethanol. The PCA was prepared in 5 g increments to pre-warmed 50-60 mL ethanol until dissolved for a total of 30 g PCA in the solution. Additional ethanol was then added volumetrically to be equivalent to 100 mL.
The Test Substrates (TS) were a Plastic-type material sourced from a clear plastic laboratory bottle (Corning 431731 Octagonal bottle, 150 mL), cloth (the top layer of a N95 mask [3M 8210]), and a Sponsor-provided wire mesh to serve as a substrate for the TA. All test substrates were cut to approximately 1″×1″ in size. The test substrates were submerged into the PCA solution and dried horizontally to allow for even coating. After the substrate was thoroughly dried, the test substrate was re-submerged into the PCA solution for an additional coating.
The Test Virus used for this study was 2019 Novel Coronavirus, Isolate USA-WA1/2020 (SARS-CoV-2). The virus was stored at approximately […] prior to use. The multiplicity of infection (MOI) was 0.01 TCID50/cell.
The Cell Culture used for the TCID50 test was African Green Monkey Kidney Cells (Vero E6 cells) that were maintained in Dulbecco's […] with 10% fetal calf serum (DMEM-2). All growth media contained heat-inactivated fetal calf serum and antibiotics.
The test design is shown below in Table 1.
The Test Substrate was coated with PCA as described above. The test substrates was treated with PCA twice and allowed to fully dry overnight. In general, the time from the first coat to the next day's virus exposure was approximately 24 hours.
The treated Test Substrate plus TA was placed into a sterile 6 well cell culture plate and approximately 100 μL total of a ≤1×10^6 TCID50/mL SARS-CoV-2 virus was such that 50 μL of virus was layered on each sides of the treated test substrates. This was the procedure used for the initial Day 1 experiment.
For the confirmatory test, in an attempt to increase the recorded titer of the controls, the treated Test Substrate plus TA was placed into a sterile 6 well cell culture plate and the same amount of virus was layered onto both sides of the test substrate. However, an addition 50 μL of DMEM was added to each side to reduce the inactivation of the virus due to desiccation. Additionally, a glass coverslip was also added to help mitigate against evaporation.
After application of the virus, the virus was contact with the Test substrates for approximately 10 minutes (Groups 1, 2, and 3, Control groups 7, 8, and 9), 60 minutes (Groups 4, 5, and 6, Control Groups 10, 11, and 12). Each substrate per time per test article was performed in duplicate.
A cell culture-only control was included to indicate that cells without any TA or virus remain healthy throughout the assay. Virus-only controls without substrate was added for each timepoint to verify that the assay was performing as expected.
After the incubation time, the treated substrate was washed with 1 mL of cell culture media (DMEM-2) for approximately 5-10 minutes within the 6 well cell culture plate and the glass cover slip removed if necessary. This was the equivalent to a 10-fold dilution. The plate was gently stirred via an orbital shaker to enhance the recovery of the virus.
For the TCID50, the cell culture media (DMEM-2) used to wash the Test Substrate was serially diluted 10 fold and transferred into respective wells of a 96-well plate which contained a monolayer of African Green Monkey Kidney Cells (Vero E6 cells) for titration. The TCID50 assay was performed non-GLP according to IITRI Standard Operating Procedures for the assay. The TCID50 titers was calculated using the method of Reed-Meunch.

[2] = cited from earlier work
[3] = in vivo; cited from earlier work
SARS CoV-2 virus = experiment: Second laboratory coupon test: virus dried on PCA-coated coupons (stainless steel, K95 mask, plastic), recovered and titrated on Vero E6 cells by CPE; assay type: cell-based; design: : unit not given here; settings: for Average Log10 TCID50 / Average TCID50: 3 replicates; for  / Log10 TCID50 / TCID50: single replicates; for TCID50: virus dried 45 minutes-1 h
Description: The second laboratory utilized test coupons made of solid stainless steel, plastic and K95 mask were coated in 30% w/v PCA in 70% ethanol. Each coupon was dipped in PCA, allowed to dry, dipped again and allowed to dry with the opposite side of the coupon facing up. Once dry, 200 ul virus was added to each coupon and allowed to dry (45 minutes-1 h drying time). Virus was recovered by adding 2 ml DMEM/F12 media and washing the coupon, without scraping so as not to dislodge PCA crystals. A yellow color change in the media was observed indicating acidification of the media upon addition to the PA-coated coupon. The recovered virus was added to empty 96 well plates and diluted 1:10 down the plate. This was then added to Vero E6 cells that had grown to ˜70% confluence. Cytotoxicity controls without virus and recovery controls without PCA were also done in the same manner. After addition to the cells, plates were read at day 4 for the presence of cytopathic effect (CPE) due to viral infection of cells. Note that cytotoxicity and CPE cannot be differentiated in this assay, thus any dead cells are marked as positive.
Cytotoxicity was seen up to 1:100 dilution for the K95, and 1:10 for the stainless steel and plastic coupons. […] The SS=stainless steel, K95=K95 mask and P=plastic. +PCA means coupons coated with PCA. No PCA (e.g. SS-1) indicates virus recovery controls with no PCA coating that had virus dried and recovered.

[4] = confirmatory run (Day 2), PCA on cloth, 10 min
[5] = confirmatory run (Day 2), PCA on cloth, 60 min
[6] = confirmatory run (Day 2), PCA on mesh, 10 min
[7] = confirmatory run (Day 2), PCA on mesh, 60 min
[8] = confirmatory run (Day 2), PCA on plastic, 10 min
[9] = confirmatory run (Day 2), PCA on plastic, 60 min
[10] = initial run (Day 1), PCA on cloth, 60 min incubation
[11] = initial run (Day 1), PCA on mesh, 60 min incubation
[12] = initial run (Day 1), PCA on plastic, 10 min incubation
[13] = initial run (Day 1), PCA on plastic, 60 min incubation
[14] = K95 mask coupon coated with PCA versus uncoated coupon
[15] = K95 mask coupon coated with PCA
[16] = plastic coupon coated with PCA versus uncoated coupon
[17] = stainless steel coupon coated with PCA versus uncoated coupon
[18] = stainless steel coupon coated with PCA

O=C(O)c1ccc(O)c(O)c1 [PCA, Protocatechuic acid]
Log average [1, 4]: 4.25 TCID50 Log10/mL
log difference [1, 4]: −1.13 log
Log average [1, 5]: 2.75 TCID50 Log10/mL
log difference [1, 5]: −2.38 log
Log average [1, 6]: 4.63 TCID50 Log10/mL
log difference [1, 6]: −1.13 log
Log average [1, 7]: 4.38 TCID50 Log10/mL
log difference [1, 7]: −0.88 log
Log average [1, 8]: 4.38 TCID50 Log10/mL
log difference [1, 8]: −1.13 log
Log average [1, 9]: 3.63 TCID50 Log10/mL
log difference [1, 9]: −1.50 log
TCID50 Log10/mL ([1]; confirmatory run (Day 2, extra DMEM and coverslip), PCA on cloth, 10 min): 4.25 TCID50 Log10/mL
TCID50 Log10/mL ([1]; confirmatory run (Day 2, extra DMEM and coverslip), PCA on cloth, 60 min): 2.00 TCID50 Log10/mL and 3.50 TCID50 Log10/mL
TCID50 Log10/mL ([1]; confirmatory run (Day 2, extra DMEM and coverslip), PCA on mesh, 10 min): 4.75 TCID50 Log10/mL and 4.50 TCID50 Log10/mL
TCID50 Log10/mL ([1]; confirmatory run (Day 2, extra DMEM and coverslip), PCA on mesh, 60 min): 4.50 TCID50 Log10/mL and 4.25 TCID50 Log10/mL
TCID50 Log10/mL ([1]; confirmatory run (Day 2, extra DMEM and coverslip), PCA on plastic, 10 min): 4.25 TCID50 Log10/mL and 4.50 TCID50 Log10/mL
TCID50 Log10/mL ([1]; confirmatory run (Day 2, extra DMEM and coverslip), PCA on plastic, 60 min): 3.50 TCID50 Log10/mL and 3.75 TCID50 Log10/mL
virucidal effect on the SARS CoV2 virus ([1]; in 10 minutes, virus droplet on PCA coating, aqueous environment): virucidal effect
TCID50 Log10/mL ([1]; initial run (Day 1), PCA on cloth (N95 top layer), 10 min incubation): 2.75 TCID50 Log10/mL
log difference ([1]; initial run (Day 1), PCA on cloth, 10 min): −1.25 log
Log average ([1]; initial run (Day 1), PCA on cloth, 10 min incubation): 2.75 TCID50 Log10/mL
log difference ([1]; initial run (Day 1), PCA on cloth, 60 min): −1.00 log
Log average [1, 10]: 2.75 TCID50 Log10/mL
TCID50 Log10/mL [1, 10]: 2.50 TCID50 Log10/mL and 3.00 TCID50 Log10/mL
log difference ([1]; initial run (Day 1), PCA on mesh, 10 min): −0.25 log
Log average ([1]; initial run (Day 1), PCA on mesh, 10 min incubation): 3.38 TCID50 Log10/mL
log difference ([1]; initial run (Day 1), PCA on mesh, 60 min): −2.00 log
Log average [1, 11]: 1.50 TCID50 Log10/mL
TCID50 Log10/mL [1, 11]: 1.00 TCID50 Log10/mL and 2.00 TCID50 Log10/mL
log difference ([1]; initial run (Day 1), PCA on plastic, 10 min): −0.63 log
Log average [1, 12]: 3.75 TCID50 Log10/mL
TCID50 Log10/mL [1, 12]: 3.75 TCID50 Log10/mL
log difference ([1]; initial run (Day 1), PCA on plastic, 60 min): −1.13 log
Log average [1, 13]: 2.88 TCID50 Log10/mL
TCID50 Log10/mL [1, 13]: 3.25 TCID50 Log10/mL and 2.50 TCID50 Log10/mL
TCID50 Log10/mL ([1]; initial run (Day 1), PCA on wire mesh, 10 min incubation): 3.50 TCID50 Log10/mL and 3.25 TCID50 Log10/mL
solubility in water [2]: approximately 10 mg/ml
LD50 [3]: 800 mg/kg
Log Reduction to Virus Controls (SARS CoV-2 virus; [14]): 2.45
Percent Log Reduction (SARS CoV-2 virus; [14]): 99.65%
Average Log10 TCID50 (SARS CoV-2 virus; [15]): 2.10
Average TCID50 (SARS CoV-2 virus; [15]): 182.4589
 (SARS CoV-2 virus; [15]): 0.03162 and 0.05012 and 0.3162
Log10 TCID50 (SARS CoV-2 virus; [15]): 2.50 and 2.30 and 1.50
TCID50 (SARS CoV-2 virus; [15]): 316.2278 and 199.5262 and 31.62
Log Reduction to Virus Controls (SARS CoV-2 virus; [16]): 3.94
Percent Log Reduction (SARS CoV-2 virus; [16]): 99.99%
Average Log10 TCID50 (SARS CoV-2 virus; plastic coupon coated with PCA): 1.91
Average TCID50 (SARS CoV-2 virus; plastic coupon coated with PCA): 88
 (SARS CoV-2 virus; plastic coupon coated with PCA): 0.1995 and 0.07943 and 0.1136
Log10 TCID50 (SARS CoV-2 virus; plastic coupon coated with PCA): 1.70 and 2.10 and 1.94
TCID50 (SARS CoV-2 virus; plastic coupon coated with PCA): 50.12 and 125.8925 and 87.99
Log Reduction to Virus Controls (SARS CoV-2 virus; [17]): 2.93
Percent Log Reduction (SARS CoV-2 virus; [17]): 99.88%
Average Log10 TCID50 (SARS CoV-2 virus; [18]): 2.37
Average TCID50 (SARS CoV-2 virus; [18]): 298.9493
 (SARS CoV-2 virus; [18]): 0.01995 and 0.1259 and 0.03162
Log10 TCID50 (SARS CoV-2 virus; [18]): 2.70 and 1.90 and 2.50
TCID50 (SARS CoV-2 virus; [18]): 501.1872 and 79.43 and 316.2278
